What follows are cell lines tested with O=C(Nc1cc(C(F)(F)F)cc(C(F)(F)F)c1)c1cc(Cl)ccc1O [IMD-0354] + NC(=O)Nc1cc(-c2cccc(F)c2)sc1C(=O)N[C@H]1CCCNC1 [AZD7762] (partner 0.2 µM) (assay: relative viability (nuclei count vs DMSO), 5 days (fraction); higher = more cells survive). Conditions: first compound 4 µM.
Method in brief: (§1)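 One day after seeding in 1536-well plates, lung cancer cell lines were dosed by pin tool. Dosing was either single-drug or a fixed anchor-drug dose plus five library-drug doses (not always all listed) in √10 steps. After 5 days, nuclei were stained in one fix-and-stain step and counted on 4× images, and relative viability is the nuclei count of treated wells over that of vehicle wells, given as the median of duplicate plates.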
Cell Line NCI-H1944 has a relative viability of 0.156. Work on PC-14 yielded a relative viability of 0.108.

The cell lines below were run with O=C(Nc1cc(C(F)(F)F)cc(C(F)(F)F)c1)c1cc(Cl)ccc1O [IMD-0354] + CS(=O)(=O)N1CCN(Cc2cc3nc(-c4cccc5[nH]ncc45)nc(N4CCOCC4)c3s2)CC1 [Pictilisib] (partner 1 µM) in the same assay as above. Conditions: first compound 0.04 µM.
Method in brief: as §1
NCI-H358 showed a relative viability of 0.319. With NCI-H2405 the relative viability was 0.536. For HOP-62, the relative viability was 0.958. Work on HCC-44 yielded a relative viability of 0.634. LU99A was tested, and the relative viability was 0.287. BEN showed a relative viability of 0.639. HARA showed a relative viability of 0.598. In the case of HCC-78, the relative viability is reported as 0.179. NCI-H322M showed a relative viability of 0.575. In the case of A-427, the relative viability is reported as 0.749. NCI-H441 gave a relative viability of 0.543. Work on NCI-H1734 yielded a relative viability of 0.495. Work on NCI-H460 yielded a relative viability of 0.438. In the case of NCI-H2347, the relative viability is reported as 0.77. NCI-H1793 gave a relative viability of 0.357. Work on 201T yielded a relative viability of 0.785. NCI-H1915 was tested, and the relative viability was 0.68. In the case of HCC-827, the relative viability is reported as 1.03. Cell Line LXF-289 has a relative viability of 0.798. With NCI-H23 the relative viability was 0.53. Work on NCI-H647 yielded a relative viability of 0.626. In the case of NCI-H1651, the relative viability is reported as 0.663. Work on EPLC-272H yielded a relative viability of 0.327. With NCI-H1792 the relative viability was 0.298. In the case of NCI-H1355, the relative viability is reported as 0.619. With NCI-H3122 the relative viability was 0.737. NCI-H1437 showed a relative viability of 0.492. NCI-H1755 showed a relative viability of 0.562. HCC-15 was tested, and the relative viability was 0.632. NCI-H1944 gave a relative viability of 0.351. With PC-14 the relative viability was 1.05.

Same assay, conditions: first compound 0.1265 µM
For NCI-H358, the relative viability was 0.31. NCI-H2405 was tested, and the relative viability was 0.521. HOP-62 gave a relative viability of 0.804. For HCC-44, the relative viability was 0.534. LU99A was tested, and the relative viability was 0.304. BEN gave a relative viability of 0.57. For HARA, the relative viability was 0.3. Work on HCC-78 yielded a relative viability of 0.204. Cell Line NCI-H322M has a relative viability of 0.519. Work on LCLC-97TM1 yielded a relative viability of 0.145. With A-427 the relative viability was 0.683. NCI-H441 showed a relative viability of 0.521. NCI-H1734 was tested, and the relative viability was 0.51. NCI-H460 was tested, and the relative viability was 0.48. With NCI-H2347 the relative viability was 0.532. Cell Line NCI-H1793 has a relative viability of 0.319. Work on 201T yielded a relative viability of 0.661. For NCI-H1915, the relative viability was 1.02. In the case of HCC-827, the relative viability is reported as 0.795. With LXF-289 the relative viability was 0.787. Cell Line NCI-H23 has a relative viability of 0.472. With NCI-H647 the relative viability was 0.524. NCI-H1651 gave a relative viability of 0.461. Work on EPLC-272H yielded a relative viability of 0.265. Work on NCI-H1792 yielded a relative viability of 0.225. With NCI-H1355 the relative viability was 0.404. For NCI-H3122, the relative viability was 0.554. NCI-H1437 was tested, and the relative viability was 0.381. Cell Line NCI-H1755 has a relative viability of 0.422. For HCC-15, the relative viability was 0.696. In the case of NCI-H1944, the relative viability is reported as 0.341. Cell Line PC-14 has a relative viability of 0.713.

Same assay, conditions: first compound 0.4 µM
With NCI-H358 the relative viability was 0.263. Work on NCI-H2405 yielded a relative viability of 0.34. For HOP-62, the relative viability was 0.346. In the case of HCC-44, the relative viability is reported as 0.415. Cell Line LU99A has a relative viability of 0.357. For BEN, the relative viability was 0.369. Cell Line HARA has a relative viability of 0.393. In the case of HCC-78, the relative viability is reported as 0.207. Cell Line NCI-H322M has a relative viability of 0.485. LCLC-97TM1 was tested, and the relative viability was 0.142. In the case of A-427, the relative viability is reported as 0.674. For NCI-H441, the relative viability was 0.316. Cell Line NCI-H1734 has a relative viability of 0.339. Work on NCI-H460 yielded a relative viability of 0.184. Cell Line NCI-H2347 has a relative viability of 0.679. NCI-H1793 gave a relative viability of 0.235. Work on 201T yielded a relative viability of 0.584. For NCI-H1915, the relative viability was 0.671. HCC-827 showed a relative viability of 0.691. LXF-289 gave a relative viability of 0.524. For NCI-H23, the relative viability was 0.306. NCI-H647 showed a relative viability of 0.184. In the case of NCI-H1651, the relative viability is reported as 0.34. In the case of EPLC-272H, the relative viability is reported as 0.231. For NCI-H1792, the relative viability was 0.622. In the case of NCI-H1355, the relative viability is reported as 0.327. Work on NCI-H3122 yielded a relative viability of 0.527. Work on NCI-H1437 yielded a relative viability of 0.442. Cell Line NCI-H1755 has a relative viability of 0.335. With HCC-15 the relative viability was 0.437.

Same assay, conditions: first compound 1.265 µM
Work on NCI-H358 yielded a relative viability of 0.241. Work on NCI-H2405 yielded a relative viability of 0.306. In the case of HOP-62, the relative viability is reported as 0.237. With HCC-44 the relative viability was 0.12. LU99A showed a relative viability of 0.152. In the case of BEN, the relative viability is reported as 0.294. Cell Line HARA has a relative viability of 0.116. HCC-78 gave a relative viability of 0.095. NCI-H322M was tested, and the relative viability was 0.557. Cell Line LCLC-97TM1 has a relative viability of 0.128. A-427 showed a relative viability of 0.164. Cell Line NCI-H441 has a relative viability of 0.266. Cell Line NCI-H1734 has a relative viability of 0.209. NCI-H460 showed a relative viability of 0.0352. NCI-H2347 showed a relative viability of 0.624. NCI-H1793 was tested, and the relative viability was 0.172. With 201T the relative viability was 0.59. For NCI-H1915, the relative viability was 0.33. HCC-827 gave a relative viability of 0.66. In the case of LXF-289, the relative viability is reported as 0.157. In the case of NCI-H23, the relative viability is reported as 0.188. NCI-H647 was tested, and the relative viability was 0.232. In the case of NCI-H1651, the relative viability is reported as 0.068. EPLC-272H was tested, and the relative viability was 0.264. NCI-H1792 gave a relative viability of 0.203. For NCI-H1355, the relative viability was 0.196. NCI-H3122 gave a relative viability of 0.174. In the case of NCI-H1437, the relative viability is reported as 0.153. Work on NCI-H1755 yielded a relative viability of 0.232. HCC-15 showed a relative viability of 0.14. Work on NCI-H1944 yielded a relative viability of 0.234. PC-14 was tested, and the relative viability was 0.409.

Same assay, conditions: first compound 4 µM
Work on NCI-H358 yielded a relative viability of 0.22. With NCI-H2405 the relative viability was 0.172. Cell Line HOP-62 has a relative viability of 0.0877. HCC-44 was tested, and the relative viability was 0.156. For LU99A, the relative viability was 0.156. BEN showed a relative viability of 0.211. Cell Line HARA has a relative viability of 0.193. With HCC-78 the relative viability was 0.126. Work on NCI-H322M yielded a relative viability of 0.446. With LCLC-97TM1 the relative viability was 0.103. A-427 was tested, and the relative viability was 0.116. For NCI-H441, the relative viability was 0.183. In the case of NCI-H1734, the relative viability is reported as 0.143. In the case of NCI-H460, the relative viability is reported as 0.0702. Cell Line NCI-H2347 has a relative viability of 0.392. NCI-H1793 showed a relative viability of 0.206. Work on 201T yielded a relative viability of 0.41. For NCI-H1915, the relative viability was 0.199. HCC-827 showed a relative viability of 0.337. For LXF-289, the relative viability was 0.0919. NCI-H23 showed a relative viability of 0.165. Work on NCI-H647 yielded a relative viability of 0.0513. NCI-H1651 was tested, and the relative viability was 0.0829. EPLC-272H was tested, and the relative viability was 0.103. In the case of NCI-H1792, the relative viability is reported as 0.204. NCI-H1355 gave a relative viability of 0.206. Work on NCI-H3122 yielded a relative viability of 0.173. For NCI-H1437, the relative viability was 0.185. NCI-H1755 gave a relative viability of 0.22. HCC-15 gave a relative viability of 0.133. Work on NCI-H1944 yielded a relative viability of 0.151. Work on PC-14 yielded a relative viability of 0.132.

Source: the supplement of paper PMC10307832
